Results reported in patent publication US6737383B1, “Herbicidal oxadiazolidines” (priority 1999, dated 2004).

What was measured:
[1] = tested on: duck salad; experiment: Test B flood test duck salad; assay type: in vivo, Heteranthera limosa
Outline: (§1)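 Plants were grown to the 2-leaf stage before treatment with test chemical, then held in a greenhouse for twelve to sixteen days. Injury was visually rated against untreated controls on a 0–10 scale, where 0 is no effect and 10 is complete control.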

[2] = tested on: sugar beet; experiment: Test B pre/postemergence sugar beet; assay type: in vivo, Beta vulgaris
Outline: (§2)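 Herbicidal effect was estimated by eye on a ten-point control scale after plants spent twelve to sixteen days in a greenhouse following soil or foliar treatment. Foliar sprays targeted plants at one to four leaves; all doses were formulated in a non-phytotoxic solvent with surfactant.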

[3] = tested on: corn; experiment: Test B pre/postemergence corn; assay type: in vivo, Zea mays
Outline: as §2

[4] = tested on: bamyardgrass; experiment: Test B flood test barnyardgrass; assay type: in vivo, Echinochloa crus-galli
Outline: as §1

[5] = tested on: smallflower flatsedge; experiment: Test B flood test smallflower flatsedge; assay type: in vivo, Cyperus difformis
Outline: as §1

[6] = tested on: velvetleaf; experiment: Test B pre/postemergence velvetleaf; assay type: in vivo, Abutilon theophrasti
Outline: as §2

[7] = tested on: cocklebur; experiment: Test B pre/postemergence cocklebur; assay type: in vivo, Xanthium strumarium
Outline: as §2

[8] = tested on: blackgrass; experiment: Test B pre/postemergence blackgrass; assay type: in vivo, Alopecurus myosuroides
Outline: as §2

[9] = tested on: surinam grass; experiment: Test B pre/postemergence surinam grass; assay type: in vivo, Brachiaria decumbens
Outline: as §2

[10] = tested on: wild oat; experiment: Test B pre/postemergence wild oat; assay type: in vivo, Avena fatua
Outline: as §2

[11] = tested on: bedstraw; experiment: Test B pre/postemergence bedstraw; assay type: in vivo, Galium aparine; details: Postemergence
Outline: as §2

[12] = tested on: wheat; experiment: Test B pre/postemergence wheat; assay type: in vivo, Triticum aestivum
Outline: as §2

[13] = tested on: purple nutsedge; experiment: Test B pre/postemergence purple nutsedge; assay type: in vivo, Cyperus rotundus
Outline: as §2

[14] = tested on: rice; experiment: Test B flood test rice; assay type: in vivo, Oryza sativa
Outline: as §1

[15] = tested on: soybean; experiment: Test B pre/postemergence soybean; assay type: in vivo, Glycine max
Outline: as §2

[16] = tested on: rape; experiment: Test B pre/postemergence rape; assay type: in vivo, Brassica napus
Outline: as §2

[17] = tested on: crabgrass; experiment: Test B pre/postemergence crabgrass; assay type: in vivo, Digitaria sanguinalis
Outline: as §2

[18] = Postemergence block (flood test species), Rate 250 g/ha, scale 0 to 10
[19] = Postemergence section (flood test species), Rate 500 g/ha, scale of 0 to 10 where 0 is no effect and 10 is complete control
[20] = Rate 62 g/ha, Postemergence (flood test species), scale of 0 to 10 where 0 is no effect and 10 is complete control
[21] = Rate 125 g/ha, Postemergence section (flood test species), scale 0 to 10, 0 is no effect, 10 is complete control
[22] = Postemergence, Rate 250 g/ha, scale 0 to 10
[23] = Postemergence, Rate 500 g/ha, scale of 0 to 10 where 0 is no effect and 10 is complete control
[24] = Preemergence, Rate 62 g/ha, scale 0 to 10 (0 no effect, 10 complete control)
[25] = Preemergence, Rate 125 g/ha, scale of 0 to 10 where 0 is no effect and 10 is complete control
[26] = Preemergence, Rate 250 g/ha, scale 0 to 10, 0 is no effect, 10 is complete control
[27] = Preemergence, Rate 500 g/ha, scale 0 to 10, 0 is no effect, 10 is complete control
[28] = Rate 125 g/ha, Postemergence, scale 0 to 10, 0 is no effect, 10 is complete control
[29] = Rate 62 g/ha, Postemergence, scale of 0 to 10 where 0 is no effect and 10 is complete control

CC(C)N(C(=O)n1oc(=O)n(CC2=NOCCC2)c1=O)c1ccccc1 [Compound 430]
2: Corn plant response rating [3, 22] | Corn plant response rating [3, 27] | Plant response rating, Velvetleaf [6, 25] | Blackgrass plant response rating [8, 29] | Plant response rating, B. signalgrass [9, 25] | Nutsedge plant response rating [13, 22] | Crabgrass plant response rating [17, 28]
4: Corn plant response rating [3, 23] | Velvetleaf plant response rating [6, 26] | Rape plant response rating [16, 27]
10: Plant response rating, Crabgrass [17, 25] | Crabgrass plant response rating [17, 26] | Crabgrass plant response rating [17, 27]
6: B. signalgrass plant response rating ([9]; Postemergence, Rate 250 g/ha, scale 0 to 10, 0 no effect, 10 complete control) | Nutsedge plant response rating [13, 23]
3: Velvetleaf plant response rating [6, 23] | Plant response rating, Blackgrass [8, 25] | Blackgrass plant response rating [8, 28] | B. signalgrass plant response rating [9, 26] | B. signalgrass plant response rating [9, 27] | Wild oats plant response rating [10, 26] | Wild oats plant response rating [10, 27] | Bedstraw plant response rating ([11]; Rate 500 g/ha, scale of 0 to 10 where 0 is no effect and 10 is complete control) | Soybean plant response rating [15, 22] | Soybean plant response rating [15, 23]
8: Blackgrass plant response rating [8, 23] | B. signalgrass plant response rating [9, 23] | Crabgrass plant response rating [17, 22]
1: Cocklebur plant response rating [7, 23] | Plant response rating, B. signalgrass [9, 24] | B. signalgrass plant response rating [9, 28] | Soybean plant response rating [15, 28] | Crabgrass plant response rating [17, 29]
5: Wheat plant response rating [12, 27]
9: Blackgrass plant response rating [8, 27] | Crabgrass plant response rating [17, 23] | Plant response rating, Crabgrass [17, 24]
7: Velvetleaf plant response rating [6, 27] | Blackgrass plant response rating [8, 22] | Blackgrass plant response rating [8, 26]
0: Ducksalad plant response rating [1, 18] | Ducksalad plant response rating [1, 19] | Ducksalad plant response rating [1, 20] | Ducksalad plant response rating [1, 21] | Sugarbeets plant response rating [2, 22] | Sugarbeets plant response rating [2, 23] | Plant response rating, Sugarbeets [2, 24] | Plant response rating, Sugarbeets [2, 25] | Sugarbeets plant response rating [2, 26] | Sugarbeets plant response rating [2, 27] | Sugarbeets plant response rating [2, 28] | Plant response rating, Corn [3, 24] | Plant response rating, Corn [3, 25] | Corn plant response rating [3, 26] | Corn plant response rating [3, 29] | Corn plant response rating [3, 28] | Barnyardgrass plant response rating [4, 18] | Barnyardgrass plant response rating [4, 19] | Barnyardgrass plant response rating [4, 20] | Barnyardgrass plant response rating [4, 21] | S. Flatsedge plant response rating [5, 18] | S. Flatsedge plant response rating [5, 19] | S. Flatsedge plant response rating [5, 21] | Velvetleaf plant response rating [6, 22] | Plant response rating, Velvetleaf [6, 24] | Velvetleaf plant response rating [6, 28] | Cocklebur plant response rating [7, 22] | Plant response rating, Cocklebur [7, 24] | Plant response rating, Cocklebur [7, 25] | Cocklebur plant response rating [7, 26] | Cocklebur plant response rating [7, 27] | Cocklebur plant response rating [7, 29] | Cocklebur plant response rating [7, 28] | Plant response rating, Blackgrass [8, 24] | B. signalgrass plant response rating [9, 29] | Wild oats plant response rating [10, 22] | Wild oats plant response rating [10, 23] | Plant response rating, Wild oats [10, 24] | Plant response rating, Wild oats [10, 25] | Wild oats plant response rating [10, 28] | Bedstraw plant response rating ([11]; Rate 250 g/ha, scale 0 to 10) | Bedstraw plant response rating ([11]; Rate 125 g/ha, scale 0 to 10, 0 is no effect, 10 is complete control) | Wheat plant response rating [12, 22] | Wheat plant response rating [12, 23] | Plant response rating, Wheat [12, 24] | Plant response rating, Wheat [12, 25] | Wheat plant response rating [12, 26] | Wheat plant response rating [12, 28] | Plant response rating, Nutsedge [13, 24] | Plant response rating, Nutsedge [13, 25] | Nutsedge plant response rating [13, 26] | Nutsedge plant response rating [13, 27] | Nutsedge plant response rating [13, 28] | Rice plant response rating [14, 18] | Rice plant response rating [14, 19] | Rice plant response rating [14, 21] | Plant response rating, Soybean [15, 24] | Plant response rating, Soybean [15, 25] | Soybean plant response rating [15, 26] | Soybean plant response rating [15, 27] | Rape plant response rating [16, 22] | Rape plant response rating [16, 23] | Plant response rating, Rape [16, 24] | Plant response rating, Rape [16, 25] | Rape plant response rating [16, 26] | Rape plant response rating [16, 28]
